Like-named read-outs stand apart in the source and are kept apart here.
Assays:
[1] = tested on: patients with ALS; test: ALSFRS-R functional decline in cohort of 3 ALS patients on primer plus maintenance dosing of D2-LA ethyl ester (Example 3); format: in vivo, human; settings: about 9 grams daily for at least 30 days then 5 grams, natural history 21
Protocol: As set forth in the examples below, the rate of functional decline is predicated on measuring an individual's, or a cohort's, average for the natural history of disease progression. Next, the individual or cohort average for the functional decline is determined at a period of time such as at 3, 6 or 12 months after initiation of therapy. The rate of decline based on the average of the natural history of the cohort is set as the denominator. The numerator is set as the delta between the rate of the natural history of disease progression and the rate of functional decline after a set period of treatment per this invention. The resulting fraction is the multiplied by 100 to give a percent change. The following exemplifies this analysis. […]
The functionality of each of the patients was evaluated periodically using the ALSFRS-R protocol. […] Before initiation of therapy, the natural history of each patient in the cohort was determined and an average annual rate of functional decline was measured at 21.
The annualized progression of the disease, as measured by an average annual rate of functional decline for all three patients starting at the time that dosing began and terminating at the end of the dosing regimen and then annualized as described above, was measured as 2.1. […]

[2] = tested on: murine fibroblasts; settings: fold vs D2-AA; erastin-treated murine fibroblasts
Protocol: In this example, two different pools of cells were each seeded in 48-well plates and treated with 50 micromolar of erastin.
Afterwards, cell viability was measured by plate dilution assay to distinguish between cells that are alive and those that are dead on a Petri dish.

[3] = Concentration of D2-LA and D2-AA in RBCs of the same single patient (Example 1); settings: extrapolated from the 3 and 6 month values
From the text: This example determines the relative concentration of D2-AA in the CSF and in RBCs in order to determine a correlation between these two concentrations. Specifically, a patient was continuously provided with a daily dose of 9 grams of D2-LA ethyl ester (which is 8.64 grams of active discounting for impurities and removal of the ethyl ester) over about a six-month period. […] In all cases, the D2-AA was obtained by deacylation of the ethyl ester of linoleic acid in the gastrointestinal tract followed by conversion of D2-LA in vivo to D2-AA.

[4] = for Concentration of D2-AA in the RBCs, high: highest of cohort; for Concentration of D2-AA in the RBCs, low: lowest of cohort
Protocol: In this example, children suffering from INAD were treated with a daily dose of 3.9 grams of D2-LA ethyl ester followed by 2.9 grams of D2-LA ethyl ester. Given the age and weight of these children, such is assumed to be substantially equivalent to a loading dose of from about 7 and about 12 grams per day for an adult patient for an adult patient and a maintenance dose which is less than the loading dose again for an adult patient.
This example also determines the concentration of D2-AA in RBCs. Specifically, a cohort of 14 children was provided with a daily dose of 3.9 grams of D2-LA ethyl ester for 1 month followed by 2.9 grams of D2-LA ethyl ester for the remaining six-month period. Blood samples were taken at 3 months for all but 1 child and at 6 months for all children. The concentration of D2-AA in RBCs was measured.

## [2H]C([2H])(/C=C\CCCCC)/C=C\CCCCCCCC(=O)OCC [D2-LA ethyl ester, 11,11-D2-linoleic acid ethyl ester]
[1]
  Average annual rate of functional decline during dosing (ALSFRS-R), annualized: 2.1

## [2H]C([2H])(/C=C\CCCCC)/C=C\C([2H])([2H])/C=C\C([2H])([2H])/C=C\CCCC(=O)O
[2]
  Level of protection against LPO induced cell death relative to 13,13-D2-arachidonic acid: approximately twice

## [2H]C([2H])(/C=C\C/C=C\C/C=C\CCCC(=O)O)/C=C\CCCCC [D2-AA, 13,13-D2-Arachidonic Acid]
[3]
  Amount of D2-AA at 1 month in RBCs (estimated by linear extrapolation, FIG. 1): about 3%
[4]; 3 months
  Concentration of D2-AA in the RBCs, high: 16.8%
  Concentration of D2-AA in the RBCs, low: 6.8%
[4]; 6 months
  Concentration of D2-AA in the RBCs, high: 26.1%
  Concentration of D2-AA in the RBCs, low: 12.0%

Reference: patent US12697319B2, “Methods for inhibiting the progression of neurodegenerative diseases” (BioJiva LLC, priority 2021, dated 2026)
